Here are results for one molecule from patent publication US9883671B2, “Mixture of natural or nature-identical alcohols with improved effectiveness” (L'AIR LIQUIDE, SOCIETE ANONYME POUR L'ETUDE ET …, priority 2012, dated 2018).

The assay deals with inoculation solution of test organisms: Staphylococcus aureus, Kocuria rhizophila, Enterobacter gergoviae, Escherichia coli, Klebsiella pneumoniae, Pseudomonas …. In words: Determination of the preserving effect of chemical preservatives in cosmetic formulations (Koko test), Carbopol gel. The assay is classed as cell-based, bacteria, yeast and moulds (mixed inoculum, ATCC strains). Conditions: 0.1% by weight; inferred from Experiment 9 compared with Experiment 2. On the procedure:
Method A—Determination of the Preserving Effect of Chemical Preservatives in Cosmetic Formulations (Koko Test) The test described below is carried out to determine the preserving effect of chemical preservatives in cosmetic formulations. Using the described method, the aim is to test the effectiveness of chemical preservatives with regard to the pack preservation for cosmetic formulations. For this purpose, the preservatives to be tested are added in various concentrations to the unpreserved samples in different experimental batches. A continuous microbial burden is achieved by periodically inoculating the experimental batches. In parallel to the inoculation, streaks of the individual batches are in each case made immediately beforehand. Assessment is made by reference to the microbial growth of the streaks. […] In each case, 25 g of the cosmetic to be tested are weighed into wide-necked bottles with screw closure (LDPE). […] The preserving effect of the individual product concentrations is assessed in a semi-quantitative method by means of the growth of the individual streaks. […] The sample is well-preserved according to criterion A if it exists under the laboratory conditions given above for a period of six weeks without microbial attack of the sample batches, i.e. no microbial growth can be detected even after the sixth inoculation. […]

With `CCCCCCCCCCCO` [Experiment 1-undecanol, 1-undecanol], the “Preserving effect of the substance by itself, inferred” value is listed as “no effect”.
